Assays:
[1] = tested on: stiffness (spasticity) in patients suffering from ALS; test: Descriptive study on 9 ALS patients: stiffness self-assessed on a 100 mm visual analog scale (VAS) before and after nicergoline; type: in vivo, human (patients)
Procedure: A descriptive study on 9 patients suffering from ALS was carried out. The main criterion defined is the stiffness, measured using a visual analog scale (VAS), of 100 mm, or the individual rates by self-assessment the severity of the stiffness perceived. The patients receive 100 mg/day of riluzole and 15 mg IV of nicergoline on the first day and 30 mg IV on the next 4 days. The duration of infusion was more than 4 hours to avoid any risk of hypotension. The measurement was carried out before and after administration of nicergoline.

[2] = tested on: spasticity in amyotrophic lateral sclerosis; settings: riluzole sold as Rilutek for ALS; cited from earlier work

CO[C@]12C[C@@H](COC(=O)c3cncc(Br)c3)CN(C)[C@@H]1Cc1cn(C)c3cccc2c13 [nicergoline, (8β)-10-methoxy-1,6-dimethylergoline-8-methanol-5-bromonicotinate]
Stiffness (VAS, 100 mm) after administration of nicergoline, mean±standard deviation ([1]; 9 ALS patients on riluzole 100 mg/day, nicergoline 15 mg IV day 1, 30 mg IV next 4 days, measured 4 days later (from 4 to 8 d), stiffness before administration 67.33±25): 48.11±19 mm | Intra-individual difference in stiffness (VAS) before vs after nicergoline, mean±standard deviation ([1]; 9 ALS patients, same regimen, range −8 to +57, comparison at zero difference significant (t=2.809, p (2α)=0.0229)): 19.22±20.5 mm | Effect on pyramidal spasticity of neurological diseases involving an attack of the pyramidal pathway (in words) ([1]; in particular spasticity during ALS): reduces the pyramidal spasticity

Nc1nc2ccc(OC(F)(F)F)cc2s1 [Riluzole, 2-amino-6-trifluoro-methoxybenzothiazole]
Effect on spasticity (in words) [2]: no effect on the spasticity
